PubChem BioAssay (NCI)
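Each compound was tested at five concentrations against cells in 96-well plates for 48 hours. Definition used: TGI = concentration required for complete inhibition of growth.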

Columns and labels:
Experiment in all cases: NCI anticancer screen, dose series, 48 h
[1] = tested on: 786-0 renal
[2] = tested on: A498 renal
[3] = tested on: A549 NSCLC
[4] = tested on: ACHN renal
[5] = tested on: COLO 205 colon
[6] = tested on: EKVX NSCLC
[7] = tested on: HOP-62 NSCLC
[8] = tested on: HT29 colon
[9] = tested on: K-562 leukemia
[10] = tested on: KM12 colon
[11] = tested on: M14 melanoma
[12] = tested on: MOLT-4 leukemia
[13] = tested on: OVCAR-3 ovarian
[14] = tested on: RXF 393 renal
[15] = tested on: SF-268 CNS
[16] = tested on: SK-MEL-5 melanoma
[17] = tested on: SK-OV-3 ovarian
[18] = tested on: SR leukemia
[19] = tested on: UACC-62 melanoma

SMILES	TGI [1] [µM]	TGI [2] [µM]	TGI [3] [µM]	TGI [4] [µM]	TGI [5] [µM]	TGI [6] [µM]	TGI [7] [µM]	TGI [8] [µM]	TGI [9] [µM]	TGI [10] [µM]	TGI [11] [µM]	TGI [12] [µM]	TGI [13] [µM]	TGI [14] [µM]	TGI [15] [µM]	TGI [16] [µM]	TGI [17] [µM]	TGI [18] [µM]	TGI [19] [µM]
N#CS/C(Cl)=C(/C(Cl)=C(Cl)Cl)[N+](=O)[O-]	76.4	> 100	> 100	> 100	> 100	> 100	> 100	> 100	> 100	> 100	> 100	64.9	48.9	> 100	> 100	> 100	> 100	53.9	> 100
O=C1CC2(CCC(O)(c3ccc(Cl)cc3)C(C(=O)c3ccc(Cl)cc3)C2)C(=O)c2ccccc2N1 (centres undefined)	4.24	52.6	> 50.8	25.4	> 56.5	> 48.6	> 100	> 50	> 100	> 100	> 100	8.56	> 100	22.3	17	43.4	35.1	> 100	> 52.8
OC1CC(O)c2c(Cl)sc(Cl)c21 (centres undefined)	> 100	> 100	89.2	> 100	33.4	> 100	98.4	> 100	> 100	> 100	> 100	> 100	70.8	11.5	> 100	> 100	82	> 100	> 100
CC(=O)CCC[C@@H](C)[C@@H]1O[C@H]([C@@]2(C)CCC(=O)O2)C[C@H]2C(CSc3ccccc3)C(=O)O[C@@H]12 (some centres undefined)	42.2	> 88.9	44.1	28.9	31.4	24.3	> 100	40.1	> 100	28.9	26.8	16	27.8	15.9	55.1	> 54.3	> 100	> 100	28.5
c1ccc(CCN(Cc2nc3ccccc3[nH]2)Cc2nc3ccccc3[nH]2)cc1	31.7	30.6	44.8	22.4	31.2	> 77.8	24.9	> 63.5	12.9	27.3	26.7	39.3	48.5	28.9	33.6	16.3	70	35.3	28.3
COc1cc2cc(C(=O)N3CC(CCl)c4ccc(NCCN)cc43)[nH]c2c(OC)c1OC (centres undefined)	1.12	0.339	12.5	0.768	2.55	6.1	0.645	11.1	0.572	1.07	0.716	0.356	0.579	0.327	1.29	0.263	1.16	38.8	0.35
O=[N+]([O-])c1cccc2nccc(NCC(O)CO)c12 (centres undefined)	35	19.3	36.4	45.2	33.5	27.6	33.6	42	> 93.3	28.7	32.9	> 80.6	33.7	26.4	67.9	25.8	74.9	28	31.5
O=[N+]([O-])C(=C(N1CCOCC1)N1CCOCC1)/C(Cl)=C(\Cl)[N+](=O)[O-]	9.76	36.1	50.8	14.6	7.62	23.2	29.8	8.26	> 100	30.9	22.1	> 100	13.5	3.89	22.9	3.04	> 100	> 100	34.8
C/C=C(/C)C(=O)O[C@H]1C(C)=C[C@]23C(=O)[C@@H](C=C(COC(C)=O)[C@@H](O)[C@]12O)[C@H]1[C@@H](C[C@H]3C)[C@@]1(C)OC(=O)/C(C)=C\C	8.93	6.07	9.34	4.39	3.8	6.38	5.25	1.49	6.81	4.06	5.47	3.56	5.99	5.25	4.73	3.84	8.2	10.9	5.69
CC1=C(OC2OC(CO)C(O)C(O)C2O)C(=O)C[C@H]2C1=CC[C@@H]1[C@@]2(C)C(=O)C[C@]2(C)[C@@H]([C@@](C)(O)C(=O)CCC(C)(C)O)[C@H](O)C[C@@]12C (some centres undefined)	> 100	> 100	> 100	> 100	> 100	> 100	> 100	> 100	> 100	> 100	> 100	> 100	> 100	> 100	> 100	> 100	> 100	> 100	> 100
O=C1/C(=C\c2cccc(Oc3ccccc3)c2)SC(c2ccccc2)N1c1ccc(Cl)cc1 (centres undefined)	> 100	> 100	> 100	> 100	> 80.9	> 100	> 100	> 100	> 90.8	> 100	> 100	> 63.6	> 100	> 100	> 100	> 41.7	> 100	> 55.9	> 100
CN(C)CCO/N=C1/C=C2CC[C@H]3[C@@H]4CC[C@H](O)[C@@]4(C)CC[C@@H]3[C@@]2(C)CC1	27.9	33.7	> 65.2	40.9	34.9	68.6	> 87.4	5.53	56.8	32.4	> 37	> 36.3	61	27.7	31.6	34.3	44.4	19.6	26
CCOC(=O)CCC(NC(=O)c1ccc(Nc2nc3cc(C(F)(F)F)ccc3nc2-c2ccccc2)cc1)C(=O)OCC (centres undefined)	> 100	> 100	> 100	> 100	> 100	> 100	> 100	> 100	> 100	> 100	> 100	> 100	> 100	> 100	> 100	> 100	> 100	> 100	> 100
O=c1c2cccnc2nc2ccc3c[nH][nH]c3c12	> 10	> 10	> 10	> 10	> 10	> 10	> 10	> 10	> 10	> 10	> 10	> 10	> 10	> 10	> 10	> 10	> 10	9.14	> 10
CCN(CC)CCS(=O)c1c2cc(OC)ccc2nc2ccc(OC)cc12 (centres undefined)	4.35	33.1	55.3	5.44	3.99	30.8	44.8	12	> 25.7	> 57.5	26.3	> 21.2	15.6	24.6	23.5	32.3	40.9	> 23.7	36.8
O=S1(=O)CCN(Cc2ccccc2)/C1=N\S(=O)(=O)c1ccc(Cl)cc1	34.5	73.5	> 100	33.1	34.3	28.5	> 100	32.6	> 100	> 100	32.9	49.9	36.1	34.6	31.4	41.9	> 100	59.9	32
